The text below walks through data of patent US12565504B2, “Spirocyclic O-glycoprotein-2-acetamido-2-deoxy-3-d-glucopyranosidase inhibitors” (BIOGEN MA INC., priority 2019, dated 2026).

In data set [1] the target is Recombinant full length human OGA enzyme (Homo sapiens (Human), UniProt O60502). Briefly: OGA Enzyme Inhibition Biochemical Assay. To be noted: 1 nM OGA, 100 μM 4-MUGlcNAc, 90 minutes, pH 6.4. The essentials: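 Full-length recombinant human OGA with fluorogenic 4-MUGlcNAc in McIlvaine buffer pH 6.4, 0.01% BSA; 90 min at room temperature, glycine pH 10 quench, fluorescence Ex 355/Em 460 nm. 10-point, 4-fold dilution from 20 μM; 4-parameter variable-slope fit.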

Data set [2] relates to P-gp (MDR1). Briefly: MDR1-MDCK Efflux Ratio Assay. In kind it is in vitro ADME. To be noted: dog, MDR1-MDCK cells, pH 7.4, read-out: MDR1-MDCK Efflux Ratio (B-A/A-B). The procedure:
MDR1-MDCK cell monolayers were grown to confluence on microporous polyester membranes in 96-well Corning insert plates. The permeability assay buffer was Hanks' Balanced Salt Solution containing 10 mM HEPES at pH of 7.4. Loperamide (1 μM) was used as a positive control P-gp substrate. Propranolol and Bestatin (1 μM) were used as high and low permeability comparators, respectively.
Test compounds or positive control P-gp substrate/permeability comprators were added to respective apical and basolateral chambers for bidirectional assessment of permeability. Receiver buffer (transport buffer supplemented with 1% bovine serum albumin) was added to respective receiver chambers. MDR1-MDCK cells were incubated with test compounds at 37° C. with 5% CO2 for 2 hr. Samples were collected from the donor chamber at both 0 and 120 minutes, and from the receiver chamber at 120 minutes. Test and control compound concentrations were determined using LC-MS/MS analysis. Each determination was performed in triplicate.

Data set [3] addresses OGA (S400 O-GLCNAC) (Homo sapiens (Human), UniProt O60502). Briefly: Cellular OGA-Tau MSD Assay. The data set is classed as cell-based. To be noted: HEK-293T cells transfected with OGT and Tau-V5; Tau-S400-GlcNAc MSD readout. The essentials:
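HEK-293T cells transiently co-expressing OGT and Tau-V5 were treated overnight at 37° C with compounds (top 1 uM, 3-fold, 10 points). Lysate Tau was captured on V5 antibody, and S400-GlcNAc was detected by MSD electrochemiluminescence. IC50 was derived from a 4-parameter fit of normalized % activity.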

Data set [4] in a line: Rat Liver Microsome Stability Assay. To be noted: rat liver microsomes 0.5 mg/mL, compound 1 μM; Qh 55 mL/minute/kg. A general note: Microsomes from liver hold many membrane-bound enzymes, among them those of drug oxidation.
Description: Aliquots (40 uL) at 0, 5, 10, 15, 25 and 40 minutes post NADPH addition (or compound addition for reactions in absence of NADPH) were transferred into individual 96-well plate wells containing 40 ng/ml of 8-cyclopently-1,3-dipropylxanthine (CPDPX, internal standard) in 160 uL acetonitrile:methanol (1:1 v/v).
The LC/MS/MS system consisted of an ultra high throughput RapidFire® 300 system (Agilent Technologies, Santa Clara, CA) coupled to a Triple Quad 5500 mass spectrometer (ABSciex, Foster City, CA). Sample load and wash were performed on a RapidFire® C4 cartridge using 0.1% formic acid in water as mobile phase A and sample elution using 0.1% formic acid in acetonitrile:methanol (1:1 v/v) as mobile phase B.
CLint, app (apparent intrinsic clearance) was calculated using the following equation for microsome stability.
[formula] • where “a” represents 45 grams of liver/kg of body weight for rat. • CLint,app (apparent intrinsic clearance) was calculated using the following equation for hepatocyte stability: • CLhep (hepatic clearance) was calculated using the following equation for microsomes
[formula] • using 55 mL/minute/kg as Qh (hepatic blood flow) for rat.

Recombinant full length human OGA enzyme, sequence (O60502 whole entry): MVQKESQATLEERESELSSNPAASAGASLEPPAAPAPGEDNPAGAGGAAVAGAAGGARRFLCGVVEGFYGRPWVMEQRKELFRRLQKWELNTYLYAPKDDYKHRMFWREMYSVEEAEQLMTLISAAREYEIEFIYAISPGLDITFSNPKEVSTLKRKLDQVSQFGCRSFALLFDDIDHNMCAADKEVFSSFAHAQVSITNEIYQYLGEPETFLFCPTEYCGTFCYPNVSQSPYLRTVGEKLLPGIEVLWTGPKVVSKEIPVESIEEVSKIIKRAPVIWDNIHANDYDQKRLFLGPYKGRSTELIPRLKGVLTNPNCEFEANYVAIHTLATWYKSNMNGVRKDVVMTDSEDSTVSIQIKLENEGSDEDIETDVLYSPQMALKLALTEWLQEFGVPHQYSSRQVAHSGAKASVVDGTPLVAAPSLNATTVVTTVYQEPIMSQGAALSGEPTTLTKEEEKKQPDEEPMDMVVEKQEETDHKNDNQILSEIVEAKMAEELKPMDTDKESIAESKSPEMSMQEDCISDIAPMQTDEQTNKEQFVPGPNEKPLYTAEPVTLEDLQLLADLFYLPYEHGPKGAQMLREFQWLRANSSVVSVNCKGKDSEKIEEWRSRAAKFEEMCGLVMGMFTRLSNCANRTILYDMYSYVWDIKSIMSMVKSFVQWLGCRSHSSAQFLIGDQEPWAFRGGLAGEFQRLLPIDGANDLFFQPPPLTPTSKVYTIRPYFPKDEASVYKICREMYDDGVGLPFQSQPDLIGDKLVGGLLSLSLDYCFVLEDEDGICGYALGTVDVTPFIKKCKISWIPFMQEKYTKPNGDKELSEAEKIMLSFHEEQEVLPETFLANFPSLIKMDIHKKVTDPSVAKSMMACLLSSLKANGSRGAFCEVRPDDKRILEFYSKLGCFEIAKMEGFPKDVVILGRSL
OGA (S400 O-GLCNAC), sequence (O60502 whole entry): as above

The term IC50 denotes the concentration that inhibits the measured activity by half. As for `CC(=O)Nc1nc(F)c(CN2C[C@@]3(Cc4cc(N5CCN(C)CC5)ncc4O3)C[C@@H]2C)s1` [Example 45, N-(4-Fluoro-5-(((2R,5′S)-5′-methyl-5-(4-methylpiperazin-1-yl)-3H-spiro[furo[2,3-c]pyridine-2,3′-pyrrolidin]-1′-yl)methyl)thiazol-2-yl)acetamide], the IC50 is less than 1 nM in data set [1] and 3 nM in data set [3]. Also, the efflux ratio at 2 hr in data set [2] is 94. Further, the “RLM % Qh (%)” value in data set [4] is 65%.

In the case of `COc1cccc2c1OC1(CCN(Cc3sc(NC(C)=O)nc3F)C1)C2` (stereo not shown) [Example 4, N-(4-Fluoro-5-((7-methoxy-3H-spiro[benzofuran-2,3′-pyrrolidin]-1′-yl)methyl)thiazol-2-yl)acetamide], the values for the IC50 in data set [1] and in data set [3] were 360 nM and more than 1000 nM, respectively. Moreover, the efflux ratio at 2 hr in data set [2] was 3.1. Moreover, in data set [4], the “RLM % Qh (%)” value is on record as 78%.

For the compound `COc1nccc2c1COC21CCCN(Cc2cnc(NC(C)=O)s2)C1` (stereo not shown) [Example 82, N-(5-((4-Methoxy-3H-spiro[furo[3,4-c]pyridine-1,3′-piperidin]-1′-yl)methyl)thiazol-2-yl)acetamide], the values for the IC50 in data set [1] and in data set [3] were 1.6 nM and 126 nM, respectively. Further, the efflux ratio at 2 hr in data set [2] amounted to 4.4. Further, the “RLM % Qh (%)” value in data set [4] was 78%.

Consider `CC(=O)Nc1nc(F)c(CN2C[C@@]3(Cc4cc(=O)[nH]cc4O3)C[C@@H]2C)s1` [Example 49, N-(4-Fluoro-5-(((2R,5′S)-5′-methyl-5-oxo-5,6-dihydro-3H-spiro[furo[2,3-c]pyridine-2,3′-pyrrolidin]-1′-yl)methyl)thiazol-2-yl)acetamide], for which the values for the IC50 in data set [1] and in data set [3] were 1 nM and 73 nM, respectively. In addition, in data set [2], the efflux ratio at 2 hr worked out at 2.5. For the same compound, the “RLM % Qh (%)” value in data set [4] is listed as 16%.

Regarding `CC(=O)Nc1nc(F)c(CN2C[C@@]3(Cc4cc(N5C[C@@H](C)O[C@@H](C)C5)ncc4O3)C[C@@H]2C)s1` [Example 39, N-(5-(((2R,5′S)-5-((2R,6S)-2,6-Dimethylmorpholino)-5′-methyl-3H-spiro[furo[2,3-c]pyridine-2,3′-pyrrolidin]-1′-yl)methyl)-4-fluorothiazol-2-yl)acetamide], the IC50 in data set [1] is 0.5 nM; in data set [3] it was 4.9 nM. Also, the efflux ratio at 2 hr in data set [2] was determined as 9.7. Further, in data set [4], the “RLM % Qh (%)” value is listed as 52%.

With `CC(=O)Nc1nc(F)c(CN2C[C@@]3(Cc4cc(N5C[C@H](C)O[C@@H](C)C5)ncc4O3)C[C@@H]2C)s1` [Example 43, N-(5-(((2R,5′S)-5-((2S,6S)-2,6-Dimethylmorpholino)-5′-methyl-3H-spiro[furo[2,3-c]pyridine-2,3′-pyrrolidin]-1′-yl)methyl)-4-fluorothiazol-2-yl)acetamide], the IC50 is less than 1 nM in data set [1] and 8 nM in data set [3]. Besides, the efflux ratio at 2 hr in data set [2] was found to be 17.5. Besides, the “RLM % Qh (%)” value in data set [4] was determined as 75%.

For the compound `CC(=O)Nc1ncc(CN2C[C@@]3(Cc4cc(N5C[C@@H](C)O[C@@H](C)C5)ncc4O3)C[C@@H]2C)s1` [Example 38, N-(5-(((2R,5′S)-5-((2R,6S)-2,6-Dimethylmorpholino)-5′-methyl-3H-spiro[furo[2,3-c]pyridine-2,3′-pyrrolidin]-1′-yl)methyl)thiazol-2-yl)acetamide], the IC50 came out at 1.2 nM in data set [1] and 9.9 nM in data set [3]. In addition, the efflux ratio at 2 hr in data set [2] amounted to 29.5. Further, the “RLM % Qh (%)” value in data set [4] is listed as 42%.

In the case of `CC(=O)Nc1nc(F)c(CN2C[C@@]3(Cc4cc(C(F)F)ncc4O3)C[C@@H]2C)s1` [Example 26, N-(5-(((2R,5′S)-5-(Difluoromethyl)-5′-methyl-3H-spiro[furo[2,3-c]pyridine-2,3′-pyrrolidin]-1′-yl)methyl)-4-fluorothiazol-2-yl)acetamide], the 50% inhibitory concentration (IC50) in data set [1] was determined as 3 nM; in data set [3] it was 5 nM. Besides, in data set [2], the efflux ratio at 2 hr is 5.6. Also, the “RLM % Qh (%)” value in data set [4] was 51%.

With `CC(=O)Nc1ncc(CN2C[C@@]3(Cc4cc(Cl)ncc4O3)C[C@@H]2C)s1` [Example 11, N-(5-(((2R,5′S)-5-Chloro-5′-methyl-3H-spiro[furo[2,3-c]pyridine-2,3′-pyrrolidin]-1′-yl)methyl)thiazol-2-yl)acetamide], the figures for the IC50 in data set [1] and in data set [3] were 6 nM and 9 nM, respectively. Further, the efflux ratio at 2 hr in data set [2] worked out at 8.4. Further, in data set [4], the “RLM % Qh (%)” value was found to be 70%.

Turning to `COCCOc1cc2c(cn1)O[C@]1(C2)C[C@H](C)N(Cc2sc(NC(C)=O)nc2F)C1` [Example 47, N-(4-Fluoro-5-(((2R,5′S)-5-(2-methoxyethoxy)-5′-methyl-3H-spiro[furo[2,3-c]pyridine-2,3′-pyrrolidin]-1′-yl)methyl)thiazol-2-yl)acetamide], the IC50 was less than 1 nM in data set [1] and 9 nM in data set [3]. For the same compound, the efflux ratio at 2 hr in data set [2] was found to be 9.2. Moreover, the “RLM % Qh (%)” value in data set [4] is 53%.

As to `CNc1cc2c(cn1)O[C@]1(C2)C[C@H](C)N(Cc2sc(NC(C)=O)nc2F)C1` [Example 29, N-(4-Fluoro-5-(((2R,5′S)-5′-methyl-5-(methylamino)-3H-spiro[furo[2,3-c]pyridine-2,3′-pyrrolidin]-1′-yl)methyl)thiazol-2-yl)acetamide], the IC50 in data set [1] is less than 1 nM; in data set [3], 3 nM. Further, the efflux ratio at 2 hr in data set [2] was 17.7. The “RLM % Qh (%)” value in data set [4] is recorded as 55%.

Take `CC(=O)Nc1ncc(CN2CC3(C[C@@H]2C)OCc2ccccc23)s1` (stereo partly drawn) [Example 59, N-(5-(((5′S)-5′-Methyl-3H-spiro[isobenzofuran-1,3′-pyrrolidin]-1′-yl)methyl)thiazol-2-yl)acetamide]: the IC50 amounted to 9 nM in data set [1] and 16 nM in data set [3]. The efflux ratio at 2 hr in data set [2] was 3.5. Besides, the “RLM % Qh (%)” value in data set [4] was 94%.

As for `CC(=O)Nc1ncc(CN2CCC3(Cc4cnc(Cl)cc4O3)C2)s1` (stereo not shown) [Example 8, N-(5-((6-Chloro-3H-spiro[furo[3,2-c]pyridine-2,3′-pyrrolidin]-1′-yl)methyl)thiazol-2-yl)acetamide], the IC50 in data set [1] was found to be 74 nM; in data set [3] it was 654 nM. For the same compound, the efflux ratio at 2 hr in data set [2] was 9.4. For the same compound, the “RLM % Qh (%)” value in data set [4] was 47%.

Consider `COc1cc2c(cn1)[C@]1(C[C@H](C)N(Cc3cnc(NC(C)=O)s3)C1)OC2` (single isomer, unassigned) [Example 76-a], for which the IC50 in data set [1] came out at 55 nM; in data set [3], 62 nM. For the same compound, the efflux ratio at 2 hr in data set [2] was 17.7. Also, the “RLM % Qh (%)” value in data set [4] is reported as 58%.

For the compound `CC(=O)Nc1ncc(CN2C[C@@]3(Cc4cc(C(F)(F)F)ncc4O3)C[C@@H]2C)s1` [Example 22, N-(5-(((2R,5′S)-5′-Methyl-5-(trifluoromethyl)-3H-spiro[furo[2,3-c]pyridine-2,3′-pyrrolidin]-1′-yl)methyl)thiazol-2-yl)acetamide], the IC50 in data set [1] came out at 17 nM; in data set [3], 25 nM. For the same compound, the efflux ratio at 2 hr in data set [2] is 11. The “RLM % Qh (%)” value in data set [4] is given as 39%.

For the compound `CC(=O)Nc1nc(F)c(CN2C[C@@]3(Cc4cc(Cl)ncc4O3)C[C@@H]2C)s1` [Example 10, N-(5-(((2R,5′S)-5-Chloro-5′-methyl-3H-spiro[furo[2,3-c]pyridine-2,3′-pyrrolidin]-1′-yl)methyl)-4-fluorothiazol-2-yl)acetamide], the IC50 in data set [1] worked out at 1 nM; in data set [3], 8 nM. Besides, the efflux ratio at 2 hr in data set [2] turned out to be 5.2. The “RLM % Qh (%)” value in data set [4] was 75%.
